{
  "source": "patent US8945518B2",
  "about": "“Formulation of dual eicosanoid system and cytokine system inhibitors for use in the prevention and treatment of oral diseases and conditions” (Unigen, Inc., priority 2002, dated 2015)",
  "key": {"[1]": {"target": "T1, recombinant ovine COX-2 (Ovis aries, UniProt P79208)", "T1 sequence (P79208 17-603)": "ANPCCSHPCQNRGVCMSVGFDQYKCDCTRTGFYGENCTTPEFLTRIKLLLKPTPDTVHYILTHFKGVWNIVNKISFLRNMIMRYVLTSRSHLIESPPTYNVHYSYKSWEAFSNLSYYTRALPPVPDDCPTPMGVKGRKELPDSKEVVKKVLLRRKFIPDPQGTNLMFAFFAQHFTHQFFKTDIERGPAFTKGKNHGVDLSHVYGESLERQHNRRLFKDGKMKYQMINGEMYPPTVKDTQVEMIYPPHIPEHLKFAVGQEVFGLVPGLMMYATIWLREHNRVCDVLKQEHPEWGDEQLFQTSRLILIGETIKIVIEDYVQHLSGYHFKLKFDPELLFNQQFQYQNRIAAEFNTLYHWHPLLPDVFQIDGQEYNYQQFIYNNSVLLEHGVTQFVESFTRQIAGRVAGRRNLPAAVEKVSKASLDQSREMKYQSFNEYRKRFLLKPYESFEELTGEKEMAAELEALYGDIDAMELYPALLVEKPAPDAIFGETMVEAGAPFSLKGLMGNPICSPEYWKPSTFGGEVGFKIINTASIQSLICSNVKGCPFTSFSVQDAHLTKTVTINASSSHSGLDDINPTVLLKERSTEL", "assay": "COX-2 peroxidase activity inhibition (TMPD, 96-well)", "format": "biochemical", "details": "IC50 normalized to enzyme units", "source_text": "(§1) In order to screen for compounds that inhibited the COX-1 and COX-2 activities, a high throughput, in vitro assay was developed that utilized the inhibition of the peroxidase activity of both enzymes. […] Briefly, the composition or compound being examined was titrated against a fixed amount of COX-1 and COX-2 enzymes. A cleavable, peroxide chromophore was included in the assay to visualize the peroxidase activity of each enzyme in presence of arachidonic acid as a cofactor. Typically, assays were performed in a 96-well format. Each inhibitor, taken from a 10 mg/mL stock solution in 100% DMSO, was tested in triplicate at room temperature using the following range of concentrations: 0, 0.1, 1, 5, 10, 20, 50, 100, and 500 μg/mL. […] The components were mixed for 10 seconds on a rotating platform, followed by the addition of 20 μL of 2 mM N,N,N′N′-tetramethyl-p-phenylenediamine dihydrochloride (TMPD) and 20 μL of 1.1 mM arachidonic acid to initiate the reaction. The plate was shaken for 10 seconds and then incubated 5 minutes before reading the absorbance at 570 nm. The inhibitor concentration vs. % inhibition was plotted and the IC50 determined by taking the half-maximal point along the isotherm and intersecting the concentration on the X-axis. The IC50 was then normalized to the number of enzyme units in the assay."}, "[2]": {"target": "T2, recombinant ovine COX-1 (Ovis aries, UniProt P05979)", "T2 sequence (P05979 25-600)": "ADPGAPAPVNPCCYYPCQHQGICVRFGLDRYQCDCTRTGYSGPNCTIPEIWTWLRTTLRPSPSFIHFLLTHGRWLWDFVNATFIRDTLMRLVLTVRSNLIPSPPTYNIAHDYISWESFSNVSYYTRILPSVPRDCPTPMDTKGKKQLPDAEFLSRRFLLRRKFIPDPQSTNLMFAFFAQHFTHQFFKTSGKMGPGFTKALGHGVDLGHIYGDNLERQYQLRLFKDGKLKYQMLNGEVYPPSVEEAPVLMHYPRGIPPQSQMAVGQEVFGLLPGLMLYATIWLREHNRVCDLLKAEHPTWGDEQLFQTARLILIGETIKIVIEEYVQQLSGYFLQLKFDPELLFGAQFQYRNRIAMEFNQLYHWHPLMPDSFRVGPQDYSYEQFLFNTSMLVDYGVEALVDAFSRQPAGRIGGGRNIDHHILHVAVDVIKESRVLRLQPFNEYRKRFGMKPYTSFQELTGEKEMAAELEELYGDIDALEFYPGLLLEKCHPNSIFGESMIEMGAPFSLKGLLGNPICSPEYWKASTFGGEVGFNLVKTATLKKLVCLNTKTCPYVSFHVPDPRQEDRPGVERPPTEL", "assay": "COX-1 peroxidase activity inhibition (TMPD, 96-well)", "format": "biochemical", "source_text": "as §1"}, "[3]": {"assay": "Oxygen Radical Absorption Capacity (ORAC)"}, "[4]": {"assay": "Stability of catechin in solution", "format": "physicochemical", "experimental": "A total of 6 different conditions (not including control solution) were chosen for this stability investigation at 45° C. Aqueous K2HPO4 (0.5 M) or KH2PO4 (0.5 M) was utilized to make buffered solutions at pH 5 or 8, respectively. […] All seven solutions were stored in sealed bottles at 45° C.\nAll eight solutions were stored in sealed bottles at 45° C."}, "[5]": {"details": "literature studies of bioavailability; cited from earlier work"}, "[6]": {"test_system": "cox-2 gene transcription in human colon cancer DLD-1 cells", "details": "Mutoh et al. (2000), read-out: IC50, suppression of cox-2 gene transcription; cited from earlier work"}, "[7]": {"test_system": "prostaglandin endoperoxide synthase", "details": "Kalkbrenner et al. (1992); cited from earlier work"}, "[8]": {"test_system": "newly synthesized LTB4 (5-LOX pathway) in HT-29 cells", "assay": "LTB4 competitive ELISA in HT-29 cells", "format": "cell-based", "details": "Homo sapiens, 3 μg/mL, 48 hrs", "experimental": "A competitive ELISA for Leukotriene B4 (LTB4; Neogen, Inc., Cat#406110) was used to assess the effect of this UP676 formulation on newly synthesized levels of LTB4 present in each cell line as a measure UP676's inhibitory effect on the 5-LOX pathway. The assay was performed in duplicate by adding 160,000 to 180,000 cells per well in 6-well plates. […] Each treated cell line was then harvested by centrifugation and disrupted by gentle dounce homogenization lysis in physiological buffers."}, "[9]": {"test_system": "COX-1 and COX-2 enzymes", "details": "cited from earlier work"}},
  "data": [
    {"smiles": "O=C(O)[C@H]1O[C@@H](Oc2cc3oc(-c4ccccc4)cc(=O)c3c(O)c2O)[C@H](O)[C@@H](O)[C@@H]1O", "note": "[Baicalin]", "values": [
      {"measurement": "IC50 for COX-2", "setting": "[1]", "value": 0.28, "unit": "μg/mL/unit"},
      {"measurement": "IC50 for COX-1", "setting": "[2]; peroxidase activity, IC50 normalized to enzyme units", "value": "0.44 μg/mL/unit of enzyme"}
    ]},
    {"smiles": "Oc1cc(O)c2c(c1)OC(c1ccc(O)c(O)c1)C(O)C2", "note": "(stereo not drawn) [Catechin]", "values": [
      {"measurement": "Oxygen Radical Absorption Capacity (ORAC)", "setting": "[3]", "value": "20,000"},
      {"measurement": "stability of catechin in solution, basic conditions or metal ions", "setting": "[4]; basic conditions or metal ions such as Fe3+", "value": "not under basic conditions or when exposed to metal ions"},
      {"measurement": "stability of catechin in solution, neutral conditions", "setting": "[4]; neutral conditions, 4° C. and 40° C.", "value": "stable"},
      {"measurement": "stability of catechin in solution, weakly basic", "setting": "[4]; pH=7.5", "value": "decomposes"},
      {"measurement": "half life", "setting": "[5]", "value": 2, "unit": "h"},
      {"measurement": "selectivity against the COX-1 enzyme", "setting": "[2]; catechin in the UP676 formulation, COX-1 over COX-2", "value": 2.3, "unit": "fold"},
      {"measurement": "IC50", "setting": "[6]", "value": 415, "unit": "µM"},
      {"measurement": "IC50", "setting": "[7]", "value": 40, "unit": "µM"}
    ]},
    {"smiles": "CC(C)Cc1ccc(C(C)C(=O)O)cc1", "note": "(stereo not drawn) [Ibuprofen, ibuprofen]", "values": [
      {"measurement": "inhibition at 3 µg/mL", "setting": "[8]", "value": 20, "unit": "%"}
    ]},
    {"smiles": "CC(=O)Oc1ccccc1C(=O)O", "note": "[aspirin]", "values": [
      {"measurement": "times more potent against COX-1 than COX-2", "setting": "[9]", "value": "more than 150 times"}
    ]}
  ]
}
